In ChEMBL document CHEMBL5346863, “Discovery of substituted benzyloxy-benzylamine inhibitors of acetyltransferase Eis and their anti-mycobacterial activity” (Eur J Med Chem, 2022):
In brackets after ≈: the same amount, converted by molar mass. Activity calls are given as the source filed them. The calls are words filed in the database; no cut-off is given here.

How the values were obtained:
[1] = test system: Mycolicibacterium smegmatis; assay: Antibacterial activity against Mycobacterium smegmatis mc2 122 assessed as bacterial growth inhibition incubated for 2 to 3 weeks by resazurin dye based assay; type: functional; conditions: time 2-3 weeks
[2] = test system: Mycobacterium tuberculosis; assay: Antibacterial activity against Mycobacterium tuberculosis H37Rv assessed as MIC of kanamycin A at 6.3 uM incubated for 24 hrs followed by kanamycin A addition measured after 6 days by alamarblue dye based assay; type: functional; conditions: 168 h, time 7 day
[3] = test system: Mycobacterium tuberculosis; assay: Antibacterial activity against Mycobacterium tuberculosis mc2 6230 assessed as bacterial growth inhibition incubated 2 to 3 weeks by resazurin dye based assay; type: functional; conditions: time 2-3 weeks
[4] = test system: Mycobacterium tuberculosis; assay: Antibacterial activity against Mycobacterium tuberculosis H37Ra assessed as bacterial growth inhibition incubated 2 to 3 weeks by resazurin dye based assay; type: functional; conditions: time 2-3 weeks
[5] = test system: Mycobacterium avium; assay: Antibacterial activity against Mycobacterium avium ATCC 25291 assessed as bacterial growth inhibition incubated for 2 to 3 weeks by resazurin dye based assay; type: functional; conditions: time 2-3 weeks
[6] = test system: Mycobacterium intracellulare; assay: Antibacterial activity against Mycobacterium intracellulare ATCC 13950 assessed as bacterial growth inhibition incubated for 2 to 3 weeks by resazurin dye based assay; type: functional; conditions: time 2-3 weeks
[7] = molecular target: T1, N-acetyltransferase Eis (Mycobacterium tuberculosis (strain ATCC 25618 / H37Rv), UniProt P9WFK7); assay: Inhibition of wild-type Mycobacterium tuberculosis Eis expressed in Escherichia coli BL21(DE3) cells incubated for 5 mins by Ellman's method
T1 sequence (P9WFK7 whole entry): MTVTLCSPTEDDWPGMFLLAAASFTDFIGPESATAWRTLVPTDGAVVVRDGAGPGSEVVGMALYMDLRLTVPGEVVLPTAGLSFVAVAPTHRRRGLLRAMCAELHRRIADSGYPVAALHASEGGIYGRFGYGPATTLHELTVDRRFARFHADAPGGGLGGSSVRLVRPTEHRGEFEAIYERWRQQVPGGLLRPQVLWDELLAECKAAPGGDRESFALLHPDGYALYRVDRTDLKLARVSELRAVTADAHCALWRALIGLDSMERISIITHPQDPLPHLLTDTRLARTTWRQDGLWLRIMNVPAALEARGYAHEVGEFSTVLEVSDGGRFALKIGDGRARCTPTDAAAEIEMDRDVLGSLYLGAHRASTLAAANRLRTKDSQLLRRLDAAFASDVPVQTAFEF

[8] = test system: Mycobacterium tuberculosis; assay: Antibacterial activity against Mycobacterium tuberculosis H37Rv assessed as MIC of kanamycin A at 106 uM incubated for 24 hrs followed by kanamycin A addition measured after 6 days by alamarblue dye based assay; type: functional, organism-based; conditions: time 7.0 day
[9] = test system: Mycobacterium tuberculosis; assay: Antibacterial activity against Mycobacterium tuberculosis K204 assessed as MIC of kanamycin A at 106 uM incubated for 24 hrs followed by kanamycin A addition measured after 6 days by alamarblue dye based assay; type: functional, organism-based; conditions: time 7.0 day
[10] = test system: A549; assay: Cytotoxicity against human A549 cells upto 12.5 uM incubated for 24 hrs by resazurin dye based cell viability assay; type: toxicity; conditions: a549, 24 h
[11] = test system: Mycobacterium tuberculosis; assay: Antibacterial activity against Mycobacterium tuberculosis H37Rv assessed as MIC of kanamycin A at 100 uM incubated for 24 hrs followed by kanamycin A addition measured after 6 days by alamarblue dye based assay; type: functional; conditions: time 7.0 day
[12] = test system: HEK293; assay: Cytotoxicity against HEK293 cells upto 12.5 uM incubated for 24 hrs by resazurin dye based cell viability assay; type: toxicity; conditions: human, hek293, 24 h
[13] = test system: J774.1; assay: Cytotoxicity against mouse J774.1 cells upto 12.5 uM incubated for 24 hrs by resazurin dye based cell viability assay; type: toxicity; conditions: j774.1, 24 h
[14] = test system: J774.1; assay: Cytotoxicity against mouse J774.1 cells at 200 uM incubated for 24 hrs by resazurin dye based cell viability assay; type: toxicity; conditions: j774.1, 24 h
[15] = test system: Mycobacteroides abscessus; assay: Antibacterial activity against Mycobacterium abscessus ATCC 19977 assessed as bacterial growth inhibition incubated for 2 to 3 weeks by resazurin dye based assay; type: functional; conditions: time 2-3 weeks
[16] = test system: HEK293; assay: Cytotoxicity against HEK293 cells at 200 uM incubated for 24 hrs by resazurin dye based cell viability assay; type: toxicity; conditions: human, hek293, 24 h
[17] = test system: A549; assay: Cytotoxicity against human A549 cells at 200 uM incubated for 24 hrs by resazurin dye based cell viability assay; type: toxicity; conditions: a549, 24 h
[18] = test system: Mycobacterium tuberculosis; assay: Antibacterial activity against Mycobacterium tuberculosis mc2 6230 assessed as bacterial growth inhibition measured after 6 days by alamarblue dye based assay; type: functional; conditions: mc2 6230, 144 h, time 6 day
[19] = test system: Mycobacterium tuberculosis; assay: Antibacterial activity against Mycobacterium tuberculosis mc2 6230 K204 assessed as bacterial growth inhibition measured after 6 days by alamarblue dye based assay; type: functional; conditions: mc2 6230 K204, 144 h, time 6 day
[20] = test system: Mycobacterium tuberculosis; assay: Antibacterial activity against Mycobacterium tuberculosis H37Rv assessed as bacterial growth inhibition measured after 6 days by alamarblue dye based assay; type: functional; conditions: 144 h, time 6 day
[21] = test system: Mycobacterium tuberculosis; assay: Antibacterial activity against Mycobacterium tuberculosis mc2 6230 assessed as MIC of kanamycin A at 25 uM incubated for 24 hrs followed by kanamycin A addition measured after 6 days by alamarblue dye based assay; type: functional; conditions: mc2 6230, 168 h, time 7 day
[22] = test system: Mycobacterium tuberculosis; assay: Antibacterial activity against Mycobacterium tuberculosis mc2 6230 K204 assessed as MIC of kanamycin A at 25 uM incubated for 24 hrs followed by kanamycin A addition measured after 6 days by alamarblue dye based assay; type: functional; conditions: Mycobacterium tuberculosis, mc2 6230 K204, 168 h, time 7 day, read-out: MIC
[23] = test system: Mycobacterium tuberculosis; assay: Antibacterial activity against Mycobacterium tuberculosis H37Rv assessed as MIC of kanamycin A at 27.5 uM incubated for 24 hrs followed by kanamycin A addition measured after 6 days by alamarblue dye based assay; type: functional; conditions: 168 h, time 7 day
[24] = test system: Mycobacterium tuberculosis; assay: Antibacterial activity against Mycobacterium tuberculosis mc2 6230 K204 assessed as MIC of kanamycin A at 6.25 uM incubated for 24 hrs followed by kanamycin A addition measured after 6 days by alamarblue dye based assay; type: functional; conditions: mc2 6230 K204, 168 h, time 7 day
[25] = test system: Mycobacterium parascrofulaceum; assay: Antibacterial activity against Mycobacterium parascrofulaceum ATCC BAA-614 assessed as bacterial growth inhibition incubated for 2 to 3 weeks by resazurin dye based assay; type: functional; conditions: time 2-3 weeks
[26] = test system: J774.1; assay: Cytotoxicity against mouse J774.1 cells <=50 uM incubated for 24 hrs by resazurin dye based cell viability assay; type: toxicity; conditions: j774.1, 24 h
[27] = test system: Mycobacterium tuberculosis; assay: Antibacterial activity against Mycobacterium tuberculosis mc2 6230 assessed as MIC of kanamycin A at 6.25 uM incubated for 24 hrs followed by kanamycin A addition measured after 6 days by alamarblue dye based assay; type: functional; conditions: mc2 6230, 168 h, time 7 day
[28] = test system: HEK293; assay: Cytotoxicity against HEK293 cells <=50 uM incubated for 24 hrs by resazurin dye based cell viability assay; type: toxicity; conditions: human, hek293, 24 h
[29] = test system: A549; assay: Cytotoxicity against human A549 cells upto 50 uM incubated for 24 hrs by resazurin dye based cell viability assay; type: toxicity; conditions: a549, 24 h
[30] = test system: Mycobacterium tuberculosis; assay: Antibacterial activity against Mycobacterium tuberculosis H37Rv assessed as MIC of kanamycin A at 43.8 uM incubated for 24 hrs followed by kanamycin A addition measured after 6 days by alamarblue dye based assay; type: functional; conditions: 168 h, time 7 day
[31] = test system: Mycobacterium tuberculosis; assay: Antibacterial activity against Mycobacterium tuberculosis H37Rv assessed as MIC of kanamycin A at 19.7 uM incubated for 24 hrs followed by kanamycin A addition measured after 6 days by alamarblue dye based assay; type: functional; conditions: 168 h, time 7 day

Row | SMILES | MIC [3] [µM] | MIC [4] [µM] | MIC [5] [µM] | MIC [6] [µM] | IC50 [7] [nM] | MIC [15] [µM] | further results
1 | Clc1ccc(COc2cccc(CNCc3cccnc3)c2)cc1 | 50 (≈ 16.9 µg/mL) | 15.6 (≈ 5.29 µg/mL) | > 62.5 | 31.3 (≈ 10.6 µg/mL) | 2500 |  | MIC [1]: 31.3 µM (≈ 10.6 µg/mL); MIC [2]: 2.5 µg/mL
2 | Clc1ccc(COc2ccc(CNCc3ccncc3)cc2)cc1 | 25 (≈ 8.47 µg/mL) | 3.9 (≈ 1.32 µg/mL) | > 62.5 | 2 (≈ 0.678 µg/mL) | 2000 | 62.5 (≈ 21.2 µg/mL) | Activity [8]: Active; Activity [9]: Active; Activity [10]: Non-Toxic; Activity [11]: Active; Activity [12]: Non-Toxic; Activity [13]: Non-Toxic; Activity [14]: Toxic; Activity [16]: Toxic; Activity [17]: Toxic
3 | NC[C@H]1O[C@H](O[C@H]2[C@H](O)[C@@H](O[C@H]3O[C@H](CO)[C@@H](O)[C@H](N)[C@H]3O)[C@H](N)C[C@@H]2N)[C@H](O)[C@@H](O)[C@@H]1O [KANAMYCIN] | < 1.25 |  |  |  |  |  | MIC [18]: < 1.25 µM; MIC [19]: 320 µM (≈ 155 µg/mL); MIC [20]: 1.25 µg/mL (≈ 2.58 µM)
4 | Clc1ccc(COc2ccc(CNCc3cccnc3)cc2)cc1 | 50 (≈ 16.9 µg/mL) | 31.3 (≈ 10.6 µg/mL) | > 62.5 | 15.6 (≈ 5.29 µg/mL) | 2900 | > 62.5 | MIC [21]: < 1.25 µM; MIC [22]: ≤ 1.25 µM; MIC [23]: ≤ 1.25 µg/mL
5 | Clc1ccc(COc2ccc(CNCc3ccccc3)cc2)cc1 | 12.5 (≈ 4.22 µg/mL) | 3.9 (≈ 1.32 µg/mL) | 62.5 (≈ 21.1 µg/mL) |  | > 200000 | 31.3 (≈ 10.6 µg/mL) | MIC [24]: < 1.25 µM; MIC [1]: 15.6 µM (≈ 5.27 µg/mL); MIC [25]: 15.6 µM (≈ 5.27 µg/mL); Activity [26]: Non-Toxic; Activity [10]: Non-Toxic; Activity [11]: Active; MIC [27]: < 1.25 µM; Activity [28]: Non-Toxic; Activity [12]: Non-Toxic; Activity [13]: Non-Toxic; Activity [29]: Non-Toxic
6 | Fc1ccc(COc2ccccc2CNCc2ccncc2)cc1 | 50 (≈ 16.1 µg/mL) | > 250 |  |  | ~100000 |  | MIC [30]: 2.5 µg/mL
7 | Fc1ccc(COc2ccc(CNCc3ccncc3)cc2)cc1 | 50 (≈ 16.1 µg/mL) | 7.8 (≈ 2.51 µg/mL) | > 62.5 | 15.6 (≈ 5.03 µg/mL) | ~1600 | > 62.5 | MIC [31]: ≤ 1.25 µg/mL
